Measurements: ChEMBL document CHEMBL3877268, “Development of resveratrol-curcumin hybrids as potential therapeutic agents for inflammatory lung diseases” (Eur J Med Chem, 2017)
Active and inactive are the calls of the source. The rule behind the calls is not given here.

Key:
[1] = Cytotoxicity against human HL-7702 cells assessed as viable cells at 10 uM measured after 24 hrs by MTT assay; type: toxicity, cell-based; settings: l02, 24 h
[2] = Chemical stability of the compound in phosphate buffer at pH 7.4 at 20 uM measured every 5 mins for 25 mins by UV-visible absorption spectra analysis; type: physicochemical; settings: pH 7.4, 25 min
RAW264.7 [3] = test: Anti-inflammatory activity in mouse RAW264.7 cells assessed as inhibition of LPS-induced IL-6 expression at […] pretreated for 30 mins followed by LPS challenge measured after 24 hrs by ELISA method; type: functional, cell-based
RAW264.7 [4] = test: Anti-inflammatory activity in mouse RAW264.7 cells assessed as inhibition of LPS-induced IL-6 expression pretreated for 30 mins followed by LPS challenge measured after 24 hrs by ELISA method; type: functional, cell-based
RAW264.7 [5] = test: Anti-inflammatory activity in mouse RAW264.7 cells assessed as inhibition of LPS-induced TNF-alpha expression at […] pretreated for 30 mins followed by LPS challenge measured after 24 hrs by ELISA method; type: functional, cell-based
Mus musculus [6] = test: Anti-inflammatory activity in LPS-induced C57BL/6 mouse acute lung injury model assessed as reduction in IL-6 level in bronchoalveolar lavage fluid at 5 mg/kg, ig pretreated for 7 days followed LPS challenge measured after 6 hrs by ELISA method; type: functional, organism-based
Peritoneal macrophage [7] = test: Anti-inflammatory activity in mouse peritoneal macrophage assessed as inhibition of LPS-induced TNF-alpha mRNA expression at 10 uM pretreated for 30 mins followed by LPS challenge measured after 6 hrs by q-PCR analysis; type: functional
Mus musculus [8] = test: Anti-inflammatory activity in LPS-induced C57BL/6 mouse acute lung injury model assessed as reduction in airspace inflammation in lung tissue at 5 mg/kg, ig pretreated for 7 days followed LPS challenge measured after 6 hrs by hematoxylin and eosin staining based light microscopy; type: functional, organism-based
Peritoneal macrophage [9] = test: Anti-inflammatory activity in mouse peritoneal macrophage assessed as inhibition of LPS-induced IL-33 mRNA expression at 10 uM pretreated for 30 mins followed by LPS challenge measured after 6 hrs by q-PCR analysis; type: functional
Mus musculus [10] = test: Anti-inflammatory activity in LPS-induced C57BL/6 mouse acute lung injury model assessed as reduction in CD68-positive macrophage level in lung tissue at 5 mg/kg, ig pretreated for 7 days followed LPS challenge measured after 6 hrs by […] light microscopy; type: functional, organism-based
Mus musculus [11] = test: Anti-inflammatory activity in LPS-induced C57BL/6 mouse acute lung injury model assessed as reduction in IL-6 level in serum at 5 mg/kg, ig pretreated for 7 days followed LPS challenge measured after 6 hrs by ELISA method; type: functional, organism-based
Mus musculus [12] = test: Anti-inflammatory activity in LPS-induced C57BL/6 mouse acute lung injury model assessed as reduction in lung wet/dry ratio at 5 mg/kg, ig pretreated for 7 days followed LPS challenge measured after 6 hrs; type: functional, organism-based
Mus musculus [13] = test: Anti-inflammatory activity in LPS-induced C57BL/6 mouse acute lung injury model assessed as reduction in total number of cells in bronchoalveolar lavage fluid at 5 mg/kg, ig pretreated for 7 days followed LPS challenge measured after 6 hrs by hemocytometer; type: functional, organism-based
Peritoneal macrophage [14] = test: Anti-inflammatory activity in mouse peritoneal macrophage assessed as inhibition of LPS-induced IL-12 mRNA expression at 10 uM pretreated for 30 mins followed by LPS challenge measured after 6 hrs by q-PCR analysis; type: functional
Mus musculus [15] = test: Anti-inflammatory activity in LPS-induced C57BL/6 mouse acute lung injury model assessed as reduction in total protein concentration at 5 mg/kg, ig pretreated for 7 days followed LPS challenge measured after 6 hrs by BCA protein assay; type: functional, organism-based
Mus musculus [16] = test: Anti-inflammatory activity in LPS-induced C57BL/6 mouse acute lung injury model assessed as reduction in number of neutrophils in bronchoalveolar lavage fluid at 5 mg/kg, ig pretreated for 7 days followed LPS challenge measured after 6 hrs by Wright-Giemsa staining based assay; type: functional, organism-based
Peritoneal macrophage [17] = test: Anti-inflammatory activity in mouse peritoneal macrophage assessed as inhibition of LPS-induced IL-6 expression at 10 uM pretreated for 30 mins followed by LPS challenge measured after 6 hrs by q-PCR analysis; type: functional
Mus musculus [18] = test: Anti-inflammatory activity in LPS-induced C57BL/6 mouse acute lung injury model assessed as reduction in TNF-alpha level in serum at 5 mg/kg, ig pretreated for 7 days followed LPS challenge measured after 6 hrs by ELISA method; type: functional, organism-based
Mus musculus [19] = test: Anti-inflammatory activity in LPS-induced C57BL/6 mouse acute lung injury model assessed as reduction in TNF-alpha level in bronchoalveolar lavage fluid at 5 mg/kg, ig pretreated for 7 days followed LPS challenge measured after 6 hrs by ELISA method; type: functional, organism-based

Compound: COc1ccc(/C=C/c2cc(OC)cc(OC)c2/C=C/C(=O)/C=C/c2ccc(C)cc2C)cc1
- Activity [1]: Non-Toxic

Compound: COc1ccc(/C=C/c2cc(OC)cc(OC)c2/C=C/C(=O)/C=C/c2ccc(C)s2)cc1
- Stability [2]: Unstable
- Activity [1]: Non-Toxic
- inhibition (RAW264.7 [3]): Active
- IC50 (RAW264.7 [4]): 4.33 µM
- inhibition (RAW264.7 [4]): Dose-dependent effect
- inhibition (RAW264.7 [5]): Active

Compound: COc1ccc(/C=C/c2cc(OC)cc(OC)c2/C=C/C(=O)/C=C/c2ccc(C(C)(C)C)cc2)cc1
- Activity [1]: Non-Toxic

Compound: COc1ccc(/C=C/c2cc(OC)cc(OC)c2/C=C/C(=O)/C=C/c2ccc(C(F)(F)F)cc2)cc1
- Activity [1]: Non-Toxic

Compound: COc1ccc(/C=C/c2cc(OC)cc(OC)c2/C=C/C(=O)/C=C/c2ccc(O)c(Br)c2)cc1
- Activity [1]: Non-Toxic

Compound: COc1ccc(/C=C/c2cc(OC)cc(OC)c2/C=C/C(=O)/C=C/c2ccccc2C(F)(F)F)cc1
- Activity [1]: Non-Toxic
- inhibition (RAW264.7 [3]): Active
- inhibition (RAW264.7 [5]): Active

Compound: COc1ccc(/C=C/c2cc(OC)cc(OC)c2/C=C/C(=O)/C=C/c2ccccc2Cl)cc1
- Activity [1]: Non-Toxic

Compound: COc1ccc(/C=C/c2cc(OC)cc(OC)c2/C=C/C(=O)/C=C/c2ccc(OC(C)(C)C)cc2)cc1
- Activity [1]: Non-Toxic

Compound: COc1ccc(/C=C/c2cc(OC)cc(OC)c2/C=C/C(=O)/C=C/c2ccc3c(c2OC)OCO3)cc1
- Activity [1]: Non-Toxic

Compound: COc1ccc(/C=C/c2cc(OC)cc(OC)c2/C=C/C(=O)/C=C/c2ccccc2)cc1
- Stability [2]: Unstable
- Activity [1]: Non-Toxic
- inhibition (RAW264.7 [3]): Active
- IC50 (RAW264.7 [4]): 3.9 µM
- inhibition (RAW264.7 [4]): Dose-dependent effect
- inhibition (RAW264.7 [5]): Active

Compound: COc1ccc(/C=C/c2cc(OC)cc(OC)c2/C=C/C(=O)/C=C/c2ccccc2Br)cc1
- Activity [1]: Non-Toxic

Compound: Oc1ccc(/C=C/c2cc(O)cc(O)c2)cc1 [RESVERATROL]
- Stability [2]: Unstable

Compound: COc1ccc(/C=C/c2cc(OC)cc(OC)c2/C=C/C(=O)/C=C/c2ccc(N3CCN(C)CC3)cc2)cc1
- Activity [1]: Non-Toxic

Compound: COc1ccc(/C=C/c2cc(OC)cc(OC)c2/C=C/C(=O)/C=C/c2ccc(OCCCN(C)C)cc2)cc1
- Stability [2]: Stable
- Activity [1]: Non-Toxic
- inhibition (RAW264.7 [3]): Active
- IC50 (RAW264.7 [4]): 2.15 µM
- inhibition (RAW264.7 [4]): Dose-dependent effect
- inhibition (RAW264.7 [5]): Active

Compound: COc1ccc(/C=C/c2cc(OC)cc(OC)c2/C=C/C(=O)/C=C/c2c(OC)cc(OC)cc2OC)cc1
- Activity [1]: Non-Toxic
- inhibition (RAW264.7 [3]): Active

Compound: COc1ccc(/C=C/c2cc(OC)cc(OC)c2/C=C/C(=O)/C=C/c2cccc(C(F)(F)F)c2)cc1
- Activity [1]: Non-Toxic
- inhibition (RAW264.7 [3]): Active

Compound: COc1ccc(/C=C/c2cc(OC)cc(OC)c2/C=C/C(=O)/C=C/c2ccc(OC)c(Br)c2)cc1
- Activity [1]: Non-Toxic
- inhibition (RAW264.7 [3]): Active

Compound: COc1ccc(/C=C/c2cc(OC)cc(OC)c2/C=C/C(=O)/C=C/c2ccccc2OC)cc1
- Activity [1]: Non-Toxic

Compound: COc1ccc(/C=C/c2cc(OC)cc(OC)c2/C=C/C(=O)/C=C/c2ccc(O)c(OC)c2)cc1
- Activity [1]: Non-Toxic

Compound: COc1ccc(/C=C/c2cc(OC)cc(OC)c2/C=C/C(=O)/C=C/c2ccc(OC)cc2OC)cc1
- Stability [2]: Stable
- Activity [1]: Non-Toxic
- inhibition (RAW264.7 [3]): Active
- IC50 (RAW264.7 [4]): 3.03 µM
- inhibition (RAW264.7 [4]): Dose-dependent effect
- inhibition (RAW264.7 [5]): Active

Compound: COc1ccc(/C=C/c2cc(OC)cc(OC)c2/C=C/C(=O)/C=C/c2cc(C(F)(F)F)ccc2C(F)(F)F)cc1
- Activity [1]: Non-Toxic

Compound: CCOc1ccc(/C=C/C(=O)/C=C/c2c(/C=C/c3ccc(OC)cc3)cc(OC)cc2OC)cc1
- Activity [1]: Non-Toxic

Compound: COc1ccc(/C=C/c2cc(OC)cc(OC)c2/C=C/C(=O)/C=C/c2cccc(OC)c2OC)cc1
- Activity (Mus musculus [6]): Active
- inhibition (Peritoneal macrophage [7]): Active
- Activity (Mus musculus [8]): Active
- Stability [2]: Stable
- Activity [1]: Non-Toxic
- inhibition (Peritoneal macrophage [9]): Active
- inhibition (RAW264.7 [3]): Active
- Activity (Mus musculus [10]): Active
- Activity (Mus musculus [11]): Active
- IC50 (RAW264.7 [4]): 2.48 µM
- inhibition (RAW264.7 [4]): Dose-dependent effect
- Activity (Mus musculus [12]): Active
- Activity (Mus musculus [13]): Active
- inhibition (RAW264.7 [5]): Active
- inhibition (Peritoneal macrophage [14]): Active
- Activity (Mus musculus [15]): Active
- Activity (Mus musculus [16]): Active
- inhibition (Peritoneal macrophage [17]): Active
- Activity (Mus musculus [18]): Active
- Activity (Mus musculus [19]): Active

Compound: CCN(CC)c1ccc(/C=C/C(=O)/C=C/c2c(/C=C/c3ccc(OC)cc3)cc(OC)cc2OC)cc1
- Activity [1]: Non-Toxic
- inhibition (RAW264.7 [3]): Active

Compound: C=CCOc1ccc(/C=C/C(=O)/C=C/c2c(/C=C/c3ccc(OC)cc3)cc(OC)cc2OC)cc1
- Activity [1]: Non-Toxic

Compound: COc1ccc(/C=C/c2cc(OC)cc(OC)c2/C=C/C(=O)/C=C/c2cccc3ccccc23)cc1
- Activity [1]: Non-Toxic
